Data taken from patent EP0694535A1, “Non-peptidyl tachykinin receptor antagonists” (ELI LILLY AND COMPANY, priority 1994, dated 1996).

How the values were obtained:
NK-1 receptor = biological target: T1, NK-1 receptor (Homo sapiens, UniProt P25103); assay: NK-1 Receptor Binding Assay (competition with labeled substance P on IM9 cells); conditions: for inhibition at 10 µM: inhibition of substance P binding to the NK-1 receptor, read-out: Percent Inhibition
T1 construct: an aliquot of IM9 cells; endogenous in cells; host or cells: IM9 cells (whole cells)
T1 sequence (P25103 whole entry): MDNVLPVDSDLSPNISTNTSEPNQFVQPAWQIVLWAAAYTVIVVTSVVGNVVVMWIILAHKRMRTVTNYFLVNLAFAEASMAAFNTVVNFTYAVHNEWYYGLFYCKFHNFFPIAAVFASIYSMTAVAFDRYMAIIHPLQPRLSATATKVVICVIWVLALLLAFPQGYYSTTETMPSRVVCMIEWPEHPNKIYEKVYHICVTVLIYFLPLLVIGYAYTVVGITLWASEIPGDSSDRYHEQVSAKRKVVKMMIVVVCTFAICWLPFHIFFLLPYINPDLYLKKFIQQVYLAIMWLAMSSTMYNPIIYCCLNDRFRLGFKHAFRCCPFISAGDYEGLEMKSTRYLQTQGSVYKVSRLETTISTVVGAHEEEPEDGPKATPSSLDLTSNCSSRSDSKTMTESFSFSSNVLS
In short: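 IM9 cells (1 x 10⁶/tube in serum-supplemented RPMI) were incubated for 45 min at 4°C with 20 pM […] substance P plus rising competitor concentrations. Binding was stopped by filtration on PEI-soaked glass fiber filters. Nonspecific binding was defined with 20 nM unlabeled ligand.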

human NK-2 receptor = biological target: T2, human NK-2 receptor (Homo sapiens, UniProt P21452); assay: NK-2 Receptor Binding Assay (CHO-hNK-2R membranes, iodohistidyl-neurokinin A); conditions: inhibition of neurokinin A binding at ten micromolar, read-out: Percent Inhibition @ 10 μM
T2 construct: expressed in transfected cells; host or cells: CHO-hNK-2R cells (CHO-derived), membrane preparation
T2 sequence (P21452 1-398): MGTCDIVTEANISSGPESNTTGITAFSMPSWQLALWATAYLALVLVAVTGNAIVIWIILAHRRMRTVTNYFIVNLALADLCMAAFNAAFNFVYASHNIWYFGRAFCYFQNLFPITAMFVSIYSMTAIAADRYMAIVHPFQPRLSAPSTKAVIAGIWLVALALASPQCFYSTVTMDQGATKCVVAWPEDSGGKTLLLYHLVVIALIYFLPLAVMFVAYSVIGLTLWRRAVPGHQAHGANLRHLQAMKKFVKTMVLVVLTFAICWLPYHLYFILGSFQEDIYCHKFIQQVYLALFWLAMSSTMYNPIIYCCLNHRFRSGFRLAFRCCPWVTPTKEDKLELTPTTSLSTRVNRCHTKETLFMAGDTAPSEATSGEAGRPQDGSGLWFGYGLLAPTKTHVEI
Procedure: The CHO-hNK-2R cells, a CHO-derived cell line transformed with the human NK-2 receptor, expressing about 400,000 such receptors per cell, were grown in 75 cm flasks or roller bottles in minimal essential medium (alpha modification) with 10% fetal bovine serum. The gene sequence of the human NK-2 receptor is given in N.P. Gerard, et al., Journal of Biological Chemistry, 265:20455-20462 (1990).
For preparation of membranes, 30 confluent roller bottle cultures were dissociated by washing each roller bottle with 10 ml of Dulbecco's phosphate buffered saline (PBS) without calcium and magnesium, followed by addition of 10 ml of enzyme-free cell dissociation solution (PBS-based, from Specialty Media, Inc.). After an additional 15 minutes, the dissociated cells were pooled and centrifuged at 1,000 RPM for 10 minutes in a clinical centrifuge. Membranes were prepared by homogenization of the cell pellets in 300 ml 50 mM Tris buffer, pH 7.4 with a Tekmar® homogenizer for 10-15 seconds, followed by centrifugation at 12,000 RPM (20,000 x g) for 30 minutes using a Beckman JA-14® rotor. The pellets were washed once using the above procedure. and the final pellets were resuspended in 100-120 ml 50 mM Tris buffer, pH 7.4, and 4 ml aliquots stored frozen at -70 °C. The protein concentration of this preparation was 2 mg/ml.
For the receptor binding assay, one 4-ml aliquot of the CHO-hNK-2R membrane preparation was suspended in 40 ml of assay buffer containing 50 mM Tris, pH 7.4, 3 mM manganese chloride, 0.02% bovine serum albumin (BSA) and 4 µg/ml chymostatin. A 200 µl volume of the homogenate (40 µg protein) was used per sample. The radioactive ligand was [[…]]iodohistidyl-neurokinin A (New England Nuclear, NEX-252), 2200 Ci/mmol. The ligand was prepared in assay buffer at 20 nCi per 100 µl; the final concentration in the assay was 20 pM. Non-specific binding was determined using 1 µM eledoisin. Ten concentrations of eledoisin from 0.1 to 1000 nM were used for a standard concentration-response curve.
All samples and standards were added to the incubation in 10 µl dimethylsulfoxide (DMSO) for screening (single dose) or in 5 µl DMSO for IC₅₀ determinations. The order of additions for incubation was 190 or 195 µl assay buffer, 200 µl homogenate, 10 or 5 µl sample in DMSO, 100 µl radioactive ligand. The samples were incubated 1 hr at room temperature and then filtered on a cell harvester through filters which had been presoaked for two hours in 50 mM Tris buffer, pH 7.7, containing 0.5% BSA. The filter was washed 3 times with approximately 3 ml of cold 50 mM Tris buffer, pH 7.7. The filter circles were then punched into 12 x 75 mm polystyrene tubes and counted in a gamma counter.
Table II, infra, provides a representative sample of the effectiveness as NK-2 receptor antagonists of many of the compounds of Formula I. The first column provides the Example number of the compound tested. The second column provides either the percent inhibition of neurokinin A binding when the compound is present in a ten micromolar concentration or the amount of compound (in micromolar amounts) necessary to inhibit fifty percent of the binding of neurokinin A. Those values which represent IC₅₀ values are designated by parentheses.

| SMILES | inhibition at 10 µM (NK-1 receptor) | inhibition at 10 µM (human NK-2 receptor) | IC50 (NK-1 receptor; concentration which inhibits fifty percent of the binding of substance P, 20 pM labeled substance P, 45 minutes at 4°C) |
| --- | --- | --- | --- |
| COc1ccc(Cn2c(-c3cc(OC)c(OC)c(OC)c3)nc3ccccc32)cc1 [Example 46, 1-(4-methoxybenzyl)-2-(3,4,5-trimethoxyphenyl)-benzimidazole] | 56% | -1.5% |  |
| COc1cc(-c2nc3ccccc3n2Cc2cccc(Cl)c2)cc(OC)c1OC [Example 40, 1-(3-chlorobenzyl)-2-(3,4,5-trimethoxyphenyl)-benzimidazole] | 77% | 55% |  |
| Cc1cccc(-c2nc3ccc(O)cc3n2Cc2ccccc2)c1 [Example 84, 1-benzyl-2-(3-methylphenyl)-6-hydroxybenzimidazole] |  | 37.8% | 590 nM |
